Assay results as given in ChEMBL document CHEMBL5104170, “Discovery of vimseltinib (DCC-3014), a highly selective CSF1R switch-control kinase inhibitor, in clinical development for the treatment of Tenosynovial Giant Cell Tumor (TGCT)” (Bioorg Med Chem Lett, 2022).
In brackets after ≈: the same amount, converted by molar mass.

Experiments:
NFS-60 = test: cells; conditions: Mus musculus, NFS-60, 72 h
Description: Antiproliferative activity against CSF1-treated mouse NFS-60 cells measured after 72 hrs by resazurin method

[1] = Inhibition of His-Glu tagged recombinant human KIT Q694-T753 deletion mutant (565 to 935 residues) measured by spectrophotometric analysis
cells [2] = conditions: Homo sapiens, Osteoclast
Description: Inhibition of RANKL-induced human osteoclast precursor cells differentiation in presence of human CSF1 and measured by tartrate-resistant acid phosphatase activity assay

[3] = Half-life in dog at 10 mg/kg, po; type: ADME, organism-based, Canis lupus familiaris; conditions: in vivo
[4] = In vivo inhibition of CSF1R in CSF1-stimulated DBA/1 mouse assessed as modulation of cFOS mRNA at 7.5 mg/kg, po administered once daily for 6 days followed by CSF1 administration through intravenously and measured at 6 hrs by RT-PCR method; type: functional; conditions: DBA/1, 144 h, time 6 day
[5] = Volume of distribution in rat at 10 mg/kg, po; type: ADME, organism-based; conditions: in vivo
[6] = In vivo inhibition of CSF1R in CSF1-stimulated DBA/1 mouse assessed as modulation of cFOS mRNA at 7.5 mg/kg, po administered once daily for 6 days followed by CSF1 administration through intravenously and measured at 2 hrs by RT-PCR method; type: functional; conditions: DBA/1, 144 h, time 6 day
[7] = Half-life in rat at 10 mg/kg, po; type: ADME, organism-based; conditions: in vivo
[8] = Plasma concentration in DBA/1 mouse at 7.5 mg/kg, po administered once daily for 6 days and measured at 6 hrs; type: ADME, organism-based; conditions: time 6 day
[9] = Plasma concentration in DBA/1 mouse at 7.5 mg/kg, po administered once daily for 6 days and measured at 24 hrs; type: ADME, organism-based; conditions: time 6 day
[10] = Metabolic stability in human liver microsomes assessed as compound remaining at 60 mins; type: ADME, Microsome; conditions: read-out: Stability
[11] = Cmax in dog at 10 mg/kg, po; type: ADME, organism-based, Canis lupus familiaris; set-up: dose 10 mg/kg, route po; conditions: in vivo
[12] = In vivo inhibition of CSF1R in CSF1-stimulated DBA/1 mouse assessed as modulation of cFOS mRNA at 7.5 mg/kg, po administered once daily for 6 days followed by CSF1 administration through intravenously and measured at 24 hrs by RT-PCR method; type: functional; conditions: DBA/1, 144 h, time 6 day
[13] = Plasma protein binding in rat; type: ADME, cell-free; conditions: read-out: PPB (converted)
[14] = Cmax in rat at 10 mg/kg, po; type: ADME, organism-based; set-up: dose 10 mg/kg, route po; conditions: in vivo
[15] = Plasma protein binding in dog; type: ADME, cell-free, Canis lupus familiaris; conditions: read-out: PPB (converted)
[16] = molecular target: Mast/stem cell growth factor receptor Kit (Homo sapiens, UniProt P10721); test: Inhibition of KIT (unknown origin) in presence of 4 mM ATP measured by cell-based spectrophotometric assay
[17] = Plasma protein binding in human; type: ADME, cell-free; conditions: read-out: PPB (converted)
[18] = In vivo inhibition of CSF1R in CSF1-stimulated DBA/1 mouse assessed as modulation of cFOS mRNA at 7.5 mg/kg, po administered once daily for 6 days followed by CSF1 administration through intravenously and measured at 12 hrs by RT-PCR method; type: functional; conditions: DBA/1, 144 h, time 6 day
[19] = Metabolic stability in dog liver microsomes assessed as compound remaining at 60 mins; type: ADME, Canis lupus familiaris, Microsome; conditions: read-out: Stability
[20] = Oral bioavailability in rat at 10 mg/kg; type: ADME, organism-based; conditions: in vivo
[21] = Permeability across apical to basolateral side in human Caco-2 cells; type: ADME, cell-based; conditions: read-out: permeability
[22] = In vivo inhibition of CSF1R in CSF1-stimulated DBA/1 mouse assessed as modulation of cFOS mRNA at 7.5 mg/kg, po administered once daily for 6 days followed by CSF1 administration through intravenously and measured at 18 hrs by RT-PCR method; type: functional; conditions: DBA/1, 144 h, time 6 day
[23] = Plasma concentration in DBA/1 mouse at 7.5 mg/kg, po administered once daily for 6 days and measured at 18 hrs; type: ADME, organism-based; conditions: time 6 day
[24] = In vivo inhibition of CSF1R in CSF1-stimulated DBA/1 mouse assessed as modulation of cFOS mRNA at 7.5 mg/kg, po administered once daily for 6 days followed by CSF1 administration through intravenously and measured at 4 hrs by RT-PCR method; type: functional; conditions: DBA/1, 144 h, time 6 day
[25] = Metabolic stability in mouse liver microsomes assessed as compound remaining at 60 mins; type: ADME, Microsome; conditions: read-out: Stability
hERG (KCNH2) = hERG (KCNH2) (Homo sapiens, UniProt Q12809); test: Inhibition of hERG measured by fluorescence polarization assay; type: toxicity
[26] = Aqueous solubility of compound at pH 7.4; type: physicochemical
[27] = Clearance in rat at 10 mg/kg, po; type: ADME, organism-based; conditions: in vivo
[28] = Plasma concentration in DBA/1 mouse at 7.5 mg/kg, po administered once daily for 6 days and measured at 8 hrs; type: ADME, organism-based; conditions: time 6 day
[29] = Tmax in rat at 10 mg/kg, po; type: ADME, organism-based; conditions: in vivo
[30] = Plasma concentration in DBA/1 mouse at 7.5 mg/kg, po administered once daily for 6 days and measured at 12 hrs; type: ADME, organism-based; conditions: time 6 day
[31] = Volume of distribution in dog at 10 mg/kg, po; type: ADME, organism-based, Canis lupus familiaris; conditions: in vivo
[32] = Plasma concentration in DBA/1 mouse at 7.5 mg/kg, po administered once daily for 6 days and measured at 4 hrs; type: ADME, organism-based; conditions: time 6 day
[33] = AUC (0 to 24 hrs) in rat at 10 mg/kg, po; type: ADME, organism-based; set-up: time < 24 hr, dose 10 mg/kg, route po; conditions: in vivo
[34] = In vivo inhibition of CSF1R in CSF1-stimulated DBA/1 mouse assessed as modulation of cFOS mRNA at 7.5 mg/kg, po administered once daily for 6 days followed by CSF1 administration through intravenously and measured at 8 hrs by RT-PCR method; type: functional; conditions: DBA/1, 144 h, time 6 day
[35] = Clearance in dog at 10 mg/kg, po; type: ADME, organism-based, Canis lupus familiaris; conditions: in vivo
[36] = Tmax in dog at 10 mg/kg, po; type: ADME, organism-based, Canis lupus familiaris; conditions: in vivo
cells [37] = conditions: Homo sapiens
Description: Inhibition of ABL (unknown origin) in presence of 4 mM ATP measured by cell-based spectrophotometric assay

[38] = AUC (0 to 24 hrs) in dog at 10 mg/kg, po; type: ADME, organism-based, Canis lupus familiaris; set-up: time < 24 hr, dose 10 mg/kg, route po; conditions: in vivo
[39] = Oral bioavailability in dog at 10 mg/kg; type: ADME, organism-based, Canis lupus familiaris; conditions: in vivo
[40] = Plasma protein binding in mouse; type: ADME, cell-free; conditions: read-out: PPB (converted)
[41] = Plasma concentration in DBA/1 mouse at 7.5 mg/kg, po administered once daily for 6 days and measured at 2 hrs; type: ADME, organism-based; conditions: time 6 day
[42] = Metabolic stability in rat liver microsomes assessed as compound remaining at 60 mins; type: ADME, Microsome; conditions: read-out: Stability

hERG (KCNH2), sequence (Q12809 whole entry): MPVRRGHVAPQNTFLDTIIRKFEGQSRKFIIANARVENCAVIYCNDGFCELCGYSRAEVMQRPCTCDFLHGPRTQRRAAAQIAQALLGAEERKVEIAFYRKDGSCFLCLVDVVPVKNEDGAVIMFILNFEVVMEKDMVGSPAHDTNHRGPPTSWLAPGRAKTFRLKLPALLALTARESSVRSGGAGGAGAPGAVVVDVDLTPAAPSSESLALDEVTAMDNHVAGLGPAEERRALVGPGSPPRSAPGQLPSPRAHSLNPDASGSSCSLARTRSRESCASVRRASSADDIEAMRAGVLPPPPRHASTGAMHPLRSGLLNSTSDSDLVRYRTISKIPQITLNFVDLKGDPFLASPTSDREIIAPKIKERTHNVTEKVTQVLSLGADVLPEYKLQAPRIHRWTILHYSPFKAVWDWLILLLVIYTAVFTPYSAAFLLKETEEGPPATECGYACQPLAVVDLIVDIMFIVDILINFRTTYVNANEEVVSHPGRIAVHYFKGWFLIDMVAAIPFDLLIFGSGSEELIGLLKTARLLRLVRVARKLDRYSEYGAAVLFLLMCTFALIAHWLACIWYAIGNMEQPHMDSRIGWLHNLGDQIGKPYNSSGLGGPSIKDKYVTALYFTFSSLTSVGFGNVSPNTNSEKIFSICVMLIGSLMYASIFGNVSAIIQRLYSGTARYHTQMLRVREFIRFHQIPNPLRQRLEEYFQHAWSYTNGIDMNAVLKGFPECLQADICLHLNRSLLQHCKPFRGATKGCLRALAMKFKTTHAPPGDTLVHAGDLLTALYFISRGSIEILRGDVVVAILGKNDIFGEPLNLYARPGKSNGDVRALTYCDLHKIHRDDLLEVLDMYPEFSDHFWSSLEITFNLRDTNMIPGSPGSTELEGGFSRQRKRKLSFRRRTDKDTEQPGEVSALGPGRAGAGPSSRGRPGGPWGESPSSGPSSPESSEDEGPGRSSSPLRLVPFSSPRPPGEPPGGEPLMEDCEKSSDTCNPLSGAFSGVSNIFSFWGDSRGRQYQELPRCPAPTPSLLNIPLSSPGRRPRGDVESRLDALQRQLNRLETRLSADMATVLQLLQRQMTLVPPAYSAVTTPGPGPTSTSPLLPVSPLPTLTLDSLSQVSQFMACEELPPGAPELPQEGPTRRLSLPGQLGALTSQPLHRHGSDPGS
Mast/stem cell growth factor receptor Kit, sequence (P10721 whole entry): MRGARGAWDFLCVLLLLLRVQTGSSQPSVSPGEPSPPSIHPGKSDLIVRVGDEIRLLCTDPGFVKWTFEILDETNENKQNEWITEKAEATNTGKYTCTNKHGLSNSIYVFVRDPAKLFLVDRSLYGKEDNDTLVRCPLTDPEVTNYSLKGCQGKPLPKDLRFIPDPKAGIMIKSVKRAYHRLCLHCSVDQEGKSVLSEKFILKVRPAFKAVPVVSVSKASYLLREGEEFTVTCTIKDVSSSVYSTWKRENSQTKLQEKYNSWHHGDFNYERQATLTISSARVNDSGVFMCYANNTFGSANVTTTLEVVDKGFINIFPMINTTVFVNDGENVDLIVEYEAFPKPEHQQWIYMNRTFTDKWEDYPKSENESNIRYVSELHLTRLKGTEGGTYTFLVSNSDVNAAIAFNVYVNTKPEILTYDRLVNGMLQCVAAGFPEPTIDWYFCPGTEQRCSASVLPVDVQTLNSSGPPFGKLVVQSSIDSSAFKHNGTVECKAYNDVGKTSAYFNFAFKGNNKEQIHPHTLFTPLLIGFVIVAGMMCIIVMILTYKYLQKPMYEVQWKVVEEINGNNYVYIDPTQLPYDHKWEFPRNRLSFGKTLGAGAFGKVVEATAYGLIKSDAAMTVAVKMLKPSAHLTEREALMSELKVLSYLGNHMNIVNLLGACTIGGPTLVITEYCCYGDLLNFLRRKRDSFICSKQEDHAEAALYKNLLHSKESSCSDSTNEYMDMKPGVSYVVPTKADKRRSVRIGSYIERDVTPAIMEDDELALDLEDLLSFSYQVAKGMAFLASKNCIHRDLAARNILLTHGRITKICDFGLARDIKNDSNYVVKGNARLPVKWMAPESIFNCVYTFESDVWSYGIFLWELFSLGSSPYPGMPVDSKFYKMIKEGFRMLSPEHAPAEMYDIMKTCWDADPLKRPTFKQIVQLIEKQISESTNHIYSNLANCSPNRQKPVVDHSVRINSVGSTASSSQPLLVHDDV

Cc1nc(-c2cnc(NC3CC3)[nH]c2=O)ccc1Oc1ccnc(-c2cnn(C)c2)c1
IC50 (NFS-60): 55 nM
IC50 [1]: > 3300 nM
IC50 (cells [2]): 16 nM

CNc1ncc(-c2ccc(Oc3ccnc(-c4cnn(C)c4)c3)c(C)n2)c(=O)[nH]1
IC50 (NFS-60): 1300 nM
IC50 [1]: 257 nM

FC(F)(F)c1ccc(CNc2ccc(Cc3c[nH]c4ncc(Cl)cc34)cn2)cn1 [PEXIDARTINIB]
IC50 (NFS-60): 33 nM

CCNc1ncc(-c2ccc(Oc3ccnc(-n4cnc(C)c4)c3)c(C)n2)c(=O)[nH]1
IC50 (NFS-60): 2800 nM
IC50 [1]: 1300 nM

CNC(=O)c1cc(Oc2ccc(-c3cnc(NC(C)C)[nH]c3=O)nc2)ccn1
IC50 (NFS-60): 127 nM
IC50 [1]: 7400 nM

Cc1nc(-c2cnc(NC3CCOCC3)[nH]c2=O)ccc1Oc1ccnc(-c2cnn(C)c2)c1
IC50 (NFS-60): 413 nM
IC50 [1]: 3200 nM

CC(=O)Nc1cc(Oc2ccc(-c3cnc(NC(C)C)[nH]c3=O)nc2C)ccn1
IC50 (NFS-60): 193 nM
IC50 [1]: 277 nM

CCNc1ncc(-c2ccc(Oc3ccnc(-c4cnn(C)c4)c3)cn2)c(=O)[nH]1
IC50 (NFS-60): 97 nM
IC50 [1]: 142 nM

Cc1nc(-c2cnc(NC(C)C)n(C)c2=O)ccc1Oc1ccnc(-c2cnn(C)c2)c1 [VIMSELTINIB]
half-life [3]: 10.6 h
inhibition in vivo at 7.5 mg/kg [4]: 88%
Vd [5]: 0.69 L/kg
inhibition in vivo at 7.5 mg/kg [6]: 84%
t1/2 [7]: 19.8 h
concentration at 144 h [8]: 2360 ng/mL
concentration at 144 h [9]: 1380 ng/mL
remaining at 1 h [10]: 100%
Cmax [11]: 1010 nM
inhibition in vivo at 7.5 mg/kg [12]: 79%
fraction unbound [13]: 0.006
IC50 (NFS-60): 18 nM
Cmax [14]: 3740 nM
fraction unbound [15]: 0.033
IC50 [16]: 1600 nM
fraction unbound [17]: 0.033
inhibition in vivo at 7.5 mg/kg [18]: 90%
remaining at 1 h [19]: 95.2%
bioavailability [20]: 76%
Papp A→B [21]: 16 ×10⁻⁶ cm/s
inhibition in vivo at 7.5 mg/kg [22]: 89%
concentration at 144 h [23]: 1310 ng/mL
inhibition in vivo at 7.5 mg/kg [24]: 93%
remaining at 1 h [25]: 94.8%
IC20 (hERG (KCNH2)): 20000 nM
solubility [26]: 200 µM (≈ 86.3 µg/mL)
CL [27]: 0.5 mL/min/kg
concentration at 144 h [28]: 3030 ng/mL
Tmax [29]: 2.67 h
concentration at 144 h [30]: 1970 ng/mL
Vd [31]: 1.33 L/kg
concentration at 144 h [32]: 4260 ng/mL
AUC [33]: 38.009 µM·h
inhibition in vivo at 7.5 mg/kg [34]: 92%
CL [35]: 2.5 mL/min/kg
Tmax [36]: 1.67 h
IC50 (cells [37]): 2900 nM
IC50 [1]: 476 nM
AUC [38]: 5.432 µM·h
bioavailability [39]: 33%
fraction unbound [40]: 0.026
concentration at 144 h [41]: 4450 ng/mL
remaining at 1 h [42]: 95.2%
IC50 (cells [2]): 9.3 nM

Cc1nc(-c2cnc(NC3CCCC3)[nH]c2=O)ccc1Oc1ccnc(-c2cnn(C)c2)c1
IC50 (NFS-60): 2.6 nM
IC50 [1]: 990 nM

Cc1cc(-c2cnc(N3CCCC3)[nH]c2=O)ncc1Oc1ccnc(-c2cnn(C)c2)c1
IC50 (NFS-60): 16 nM
IC50 [1]: 473 nM

Cc1nc(-c2cnc(N3CCOCC3)[nH]c2=O)ccc1Oc1ccnc(-c2cnn(C)c2)c1
IC50 (NFS-60): 494 nM
IC50 [1]: > 3300 nM

Cc1nc(-c2cnc(N3CCCCC3)[nH]c2=O)ccc1Oc1ccnc(-c2cnn(C)c2)c1
IC50 (NFS-60): 30 nM
IC50 [1]: > 3300 nM

CN(C)CC(=O)N1CCC(c2ccc(NC(=O)c3nc(C#N)c[nH]3)c(C3=CCCCC3)c2)CC1
IC50 (cells [2]): 1.7 nM

Cc1nc(-c2cnc(N(C)C)[nH]c2=O)ccc1Oc1ccnc(-c2cnn(C)c2)c1
IC50 (NFS-60): 716 nM
IC50 [1]: > 3300 nM
IC50 (cells [2]): 17 nM

CCNc1ncc(-c2ccc(Oc3ccnc(-c4cnn(C)c4)c3)c(C)n2)c(=O)[nH]1
IC50 (NFS-60): 45 nM
IC50 [1]: 2100 nM
IC50 (cells [2]): 18 nM

Cc1nc(-c2cnc(NC3CC3)n(C)c2=O)ccc1Oc1ccnc(-c2cnn(C)c2)c1
IC50 (NFS-60): 18 nM
IC50 [1]: 1700 nM
IC50 (cells [2]): 7.4 nM

Cc1nc(-c2cnc(NC(C)C)[nH]c2=O)ccc1Oc1ccnc(-c2cnn(C)c2)c1
inhibition in vivo at 7.5 mg/kg [4]: 22%
inhibition in vivo at 7.5 mg/kg [6]: 36%
concentration at 144 h [8]: 451 ng/mL
concentration at 144 h [9]: 17 ng/mL
inhibition in vivo at 7.5 mg/kg [12]: 16%
IC50 (NFS-60): 3.1 nM
inhibition in vivo at 7.5 mg/kg [18]: 14%
inhibition in vivo at 7.5 mg/kg [22]: 11%
concentration at 144 h [23]: 21 ng/mL
inhibition in vivo at 7.5 mg/kg [24]: 55%
concentration at 144 h [28]: 360 ng/mL
concentration at 144 h [30]: 20 ng/mL
concentration at 144 h [32]: 563 ng/mL
inhibition in vivo at 7.5 mg/kg [34]: 47%
IC50 [1]: 322 nM
concentration at 144 h [41]: 696 ng/mL
IC50 (cells [2]): 13 nM

CCn1cc(-c2cc(Oc3ccc(-c4cnc(NC(C)C)[nH]c4=O)nc3C)ccn2)cn1
IC50 (NFS-60): 13 nM
IC50 [1]: 2000 nM

Cc1nc(-c2cnc(N3CCCC3)[nH]c2=O)ccc1Oc1ccnc(-c2cnn(C)c2)c1
IC50 (NFS-60): 56 nM
IC50 [1]: > 3300 nM

CCNc1ncc(-c2ccc(Oc3ccnc(-c4ccc(C)nc4)c3)c(C)n2)c(=O)[nH]1
IC50 (NFS-60): 1200 nM
IC50 [1]: 1500 nM
